One experiment has as its target ITK (Homo sapiens (Human), UniProt Q08881). The experiment in a line: ITK inhibitor binding potency (LanthaScreen competitive binding assay). Conditions: read-out: ITK Inh. IC50. Summed up: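 TR-FRET tracer displacement: 10 nM GST-ITK, 2 nM Eu-anti-GST, 50 nM tracer-236 in HEPES pH 7.5, MgCl2, 2% DMSO; 11 points, 20 µM–0.34 nM. Run with or without 2 h compound–ITK preincubation before tracer; IC50 by 4-parameter fit of emission ratio.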
A general note: In TR-FRET formats the signal depends on donor and acceptor labels being close together.

The next experiment has as its target JAK3 (Homo sapiens (Human), UniProt P52333). The experiment in a line: JAK3 enzyme activity assay (Caliper mobility shift). The experiment is classed as biochemical. As to conditions: ATP at Km level; read-out: JAK3 Inh. IC50. The method, boiled down:
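Caliper mobility-shift assay with 2.5 nM JAK3, […] and […] (Km level) in 20 mM HEPES pH 7.5, 10 mM MgCl2, 0.01% BSA, 0.0005% Tween-20, 2% DMSO. 11-point dose-response from […] 0.34 nM; IC50 by 4-parameter logistic fit of product/substrate signal.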

Experiment [1] deals with ITK phosphorylation of its substrate, PLCγ1, at Y783. Nature of the experiment: ITK target modulation assay (PLCγ1 Y783 phosphorylation, anti-CD3 stimulated Jurkat T cells). It is filed as cell-based. As to conditions: Homo sapiens, Jurkat, anti-CD3 Dynabeads stimulation, read-out: PLC-γ Inh. IC50. The method, boiled down:
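Jurkat cells (400,000/well) were preincubated with compound for 1 h at 37 °C (0.1% DMSO final), then stimulated with anti-CD3 Dynabeads (bead:cell 2:1). Hypotonic lysates were dot-blotted and probed for phospho-PLCγ1 Y783 and total PLCγ1, with quantification by dual-channel infrared imaging.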

The test system of experiment [2] is JAK1/3 phosphorylation of its substrate, STAT5, at Y694. Nature of the experiment: JAK1/3 target modulation assay (IL-2 stimulated STAT5 Y694 phosphorylation in PBMC). The experiment is classed as cell-based. As to conditions: Homo sapiens, PBMC, Primary human peripheral blood mononuclear cells, IL-2 25 ng/mL; read-out: IL2-STAT5 Inh. IC50. Summed up: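 Human PBMCs preincubated with compound for 1 h at 37 °C, then stimulated with IL-2 (25 ng/mL final) for 5 min. Cells were lysed and phospho-STAT5a,b (Y694) measured by MSD electrochemiluminescence immunoassay, single-plex or multiplex with total STAT5a,b.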

A word on the IC50: it is the concentration that inhibits the measured activity by half.

Structures are written as SMILES.

Chain of ITK (Q08881 whole entry): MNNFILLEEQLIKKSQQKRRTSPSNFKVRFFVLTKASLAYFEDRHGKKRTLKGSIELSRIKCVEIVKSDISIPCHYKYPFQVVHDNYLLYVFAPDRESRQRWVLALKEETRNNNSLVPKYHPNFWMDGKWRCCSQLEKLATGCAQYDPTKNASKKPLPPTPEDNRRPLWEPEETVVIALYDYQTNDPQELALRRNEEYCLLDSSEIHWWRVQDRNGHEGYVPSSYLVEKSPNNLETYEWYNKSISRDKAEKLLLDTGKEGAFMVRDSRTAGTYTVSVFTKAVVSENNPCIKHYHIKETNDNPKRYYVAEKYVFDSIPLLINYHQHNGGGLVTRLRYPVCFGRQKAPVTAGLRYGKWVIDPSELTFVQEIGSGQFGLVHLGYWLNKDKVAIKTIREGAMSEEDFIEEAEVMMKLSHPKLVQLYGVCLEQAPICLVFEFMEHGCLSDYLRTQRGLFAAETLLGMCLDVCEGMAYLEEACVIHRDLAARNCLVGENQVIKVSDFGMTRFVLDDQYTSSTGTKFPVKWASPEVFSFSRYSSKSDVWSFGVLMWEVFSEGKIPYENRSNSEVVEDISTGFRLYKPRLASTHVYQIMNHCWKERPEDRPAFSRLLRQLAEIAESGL
Chain of JAK3 (P52333 781-1124): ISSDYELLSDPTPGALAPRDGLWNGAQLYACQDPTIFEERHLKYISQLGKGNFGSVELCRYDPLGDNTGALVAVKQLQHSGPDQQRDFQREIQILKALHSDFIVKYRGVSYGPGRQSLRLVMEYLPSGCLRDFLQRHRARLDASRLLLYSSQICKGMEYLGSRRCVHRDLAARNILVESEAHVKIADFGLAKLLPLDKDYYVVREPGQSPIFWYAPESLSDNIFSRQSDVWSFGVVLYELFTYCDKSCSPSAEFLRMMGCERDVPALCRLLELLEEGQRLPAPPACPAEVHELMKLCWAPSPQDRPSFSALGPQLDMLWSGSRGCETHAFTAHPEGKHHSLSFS

As to `C=CC(=O)N1CCC(Nc2cnc3[nH]cc(C(=O)OCC)c3n2)CC1` [Example 97, ethyl 2-((1-acryloylpiperidin-4-yl)amino)-5H-pyrrolo[2,3-b]pyrazine-7-carboxylate], the concentration for half-maximal inhibition (IC50) is more than 0.1 µM at ITK, not above 0.01 µM at JAK3, more than 1 µM in experiment [1] and 0.1 to 1 µM in experiment [2].
With `C=CC(=O)N1CCC(Nc2cnc3[nH]cc(C(=O)C4CC4)c3c2)CC1` [Example 98, 1-(4-((3-(cyclopropanecarbonyl)-1H-pyrrolo[2,3-b]pyridin-5-yl)amino)piperidin-1-yl)prop-2-en-1-one], the concentration for half-maximal inhibition (IC50) at ITK was more than 0.1 µM; on JAK3, 0.01 to 0.1 µM; in experiment [1], more than 1 µM; in experiment [2], more than 1 µM.
Turning to `C=CC(=O)N1CCC(Nc2cnc3[nH]cc(C(=O)C4CC4)c3n2)CC1` [Example 99, 1-(4-((7-(cyclopropanecarbonyl)-5H-pyrrolo[2,3-b]pyrazin-2-yl)amino)piperidin-1-yl)prop-2-en-1-one], the half-maximal inhibitory concentration (IC50) was 0.01 to 0.1 µM at ITK, not above 0.01 µM at JAK3, more than 1 µM in experiment [1] and not above 0.1 µM in experiment [2].
For `C=CC(=O)N1CCC(Nc2cnc3[nH]cc(C(=O)C4CCC4)c3n2)CC1` [Example 100, 1-(4-((7-(cyclobutanecarbonyl)-5H-pyrrolo[2,3-b]pyrazin-2-yl)amino)piperidin-1-yl)prop-2-en-1-one], the half-inhibitory concentration (IC50) at ITK is 0.01 to 0.1 µM; at JAK3, not above 0.01 µM; in experiment [1], 0.1 to 1 µM; in experiment [2], not above 0.1 µM.
In the case of `C=CC(=O)N1CCC(Nc2cnc3[nH]cc(C(COC)C4CC4)c3c2)CC1` (centres unmarked) [Example 101, 1-(4-((3-(1-cyclopropyl-2-methoxyethyl)-1H-pyrrolo[2,3-b]pyridin-5-yl)amino)piperidin-1-yl)prop-2-en-1-one], the IC50 at ITK is more than 0.1 µM; at JAK3, more than 0.1 µM; in experiment [1], more than 1 µM; in experiment [2], more than 1 µM.

(Values after patent US12297203B2, “Pyrrolopyrimidine ITK inhibitors” (ACLARIS THERAPEUTICS, INC., priority 2018, dated 2025).)
